Laboratory results reported in patent US8969299B2, “Therapeutic agents for regulating serum phosphorus” (KAI Pharmaceuticals, Inc., priority 2011, dated 2015).
Peptide text beside a SMILES is read from it.

What was measured:
[1] = tested on: 1K1C model animals; test: plasma PTH reduction after 30-minute IV infusion in 1K1C model animals; type: in vivo; conditions: 3 mg/kg; for effect on plasma PTH: 30-minute IV infusion; for mean PTH reduction: 24 hour time point
From the text: These compounds include (i) Ac-crrrr-NH2 (SEQ ID NO:4), (ii) Ac-crrrrr-NH2 (SEQ ID NO:5), (iii) Ac-crrrrrr-NH2 (SEQ ID NO:6), and (iv) Ac-crrrrrrr-NH2 (SEQ ID NO:7). In previous studies, the compounds identified as SEQ ID NO:4, SEQ ID NO:5, SEQ ID NO:6 and SEQ ID NO:7 were each administered by a 30-minute IV infusion to 1K1C model animals and effected a reduction in plasma PTH levels as a percent of the pre-dosing (baseline) level. […] These latter two compounds produced a mean PTH reduction of ˜40% and 60% at the 24 hour time point, respectively. It should be noted that the compounds in this study were administered at the same mg/kg dose but, due to differences in molecular weight, a different number of moles of each compound was actually dosed.

[2] = tested on: PTH blood concentration; test: in vivo PTH-lowering activity (species not stated)
Experimental: The contribution of the thiol-containing group in the X1 subunit of the compound (e.g., in certain embodiments where the compound is a peptide on the N-terminal residue), was also investigated in an in vivo study. The PTH-lowering activity of the peptides identified as SEQ ID NO:26 (Ac-carrrar-NH2) and as SEQ ID NO:29 (Ac-arrrar-NH2) was evaluated in vivo.

[3] = tested on: normal rats; test: PTH reduction in vivo in normal rats; design: species or system rat; conditions: for decrease in percent PTH: after a single IV administration in normal rats
Experimental: The data illustrate that cationic and uncharged residues at different positions are not all equal and there are changes in activity as a result of change in the compound structure.
The structure-activity relationship of the thiol-containing group in the X1 subunit of the compound was further analyzed by preparing compounds with differing X1 subunits. The compounds, were tested in vivo in normal rats for activity to reduce PTH. The data illustrated that the thiol-containing X1 subunit can be varied. Compounds with the following in the N-terminal residue were tested—D-cysteine (cys), D-penicillamine (dPen), d-homocysteine (dHcy) and mercaptopropionic acid (Mpa). In addition, a natural or non-natural amino acid, such as beta alanine, can be conjugated to the N-terminal thiol-containing residue. The data illustrated that cationic compounds such as […] (SEQ ID NO:6) containing different thiol-containing groups in the X1 subunit effectively reduce PTH in vivo.
In another study of the structure activity relationship, the contribution of non-cationic amino acids to the potency of the peptides was evaluated by preparing a series of peptides with various D-amino acid residues or glycine or with sterically-hindered non-natural amino acids, substituted at various positions in the peptide Ac-carrrar-NH2 (SEQ ID NO:26) and in the peptide Ac-crrarar-NH2 (SEQ ID NO:153). The peptides were administered as an IV bolus to normal Sprague Dawley rats at a dose of 0.5 mg/kg. An intravenous (IV) bolus of saline was used as a control. Plasma PTH levels were assessed prior to dosing and 1, 2, 3 and 4 hours after dosing.

[4] = target: T1, human CaSR (Homo sapiens, UniProt P41180); test: IP1 production in HEK293 cells that express the human CaSR; type: cell-based; conditions: HEK 293 cells
T1 construct: expressed in transfected cells; host or cells: HEK293
T1 sequence (P41180 20-1078): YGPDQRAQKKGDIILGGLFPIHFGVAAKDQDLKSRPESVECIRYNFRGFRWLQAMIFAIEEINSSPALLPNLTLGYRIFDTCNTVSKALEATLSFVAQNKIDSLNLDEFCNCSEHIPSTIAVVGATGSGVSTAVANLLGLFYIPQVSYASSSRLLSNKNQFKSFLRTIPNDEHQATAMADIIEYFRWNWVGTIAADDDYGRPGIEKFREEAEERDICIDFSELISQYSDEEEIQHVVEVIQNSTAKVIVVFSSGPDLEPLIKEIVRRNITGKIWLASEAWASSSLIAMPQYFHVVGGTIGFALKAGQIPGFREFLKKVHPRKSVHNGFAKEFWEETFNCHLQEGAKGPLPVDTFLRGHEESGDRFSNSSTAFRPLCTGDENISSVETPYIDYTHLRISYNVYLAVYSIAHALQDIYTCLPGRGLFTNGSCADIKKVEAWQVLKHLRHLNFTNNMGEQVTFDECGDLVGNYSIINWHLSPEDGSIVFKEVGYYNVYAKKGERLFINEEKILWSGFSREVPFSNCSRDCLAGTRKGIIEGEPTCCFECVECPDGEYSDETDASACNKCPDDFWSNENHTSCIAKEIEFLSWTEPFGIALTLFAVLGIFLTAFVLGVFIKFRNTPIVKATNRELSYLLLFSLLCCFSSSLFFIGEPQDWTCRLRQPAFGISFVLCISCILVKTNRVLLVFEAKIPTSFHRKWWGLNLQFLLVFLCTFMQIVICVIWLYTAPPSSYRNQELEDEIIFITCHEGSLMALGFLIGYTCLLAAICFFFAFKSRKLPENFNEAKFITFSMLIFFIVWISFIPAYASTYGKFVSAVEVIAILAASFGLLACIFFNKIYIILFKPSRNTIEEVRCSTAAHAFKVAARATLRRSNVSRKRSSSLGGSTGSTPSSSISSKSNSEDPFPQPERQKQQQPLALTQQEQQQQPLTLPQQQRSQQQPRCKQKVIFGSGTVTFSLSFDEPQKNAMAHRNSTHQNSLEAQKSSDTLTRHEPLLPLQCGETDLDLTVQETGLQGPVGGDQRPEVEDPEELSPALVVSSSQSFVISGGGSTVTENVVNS
Experimental: The compounds were characterized in an in vitro human calcium-sensing receptor (CaSR) assay, wherein HEK 293 cells that express the human calcium-sensing receptor were used to measure activity of exemplary compounds.
Further structure-activity relationship studies were conducted using the in vitro cell assay in HEK 293 cells that express the human calcium-sensing receptor.
The activity of a variety of peptides and conjugates was tested for their effects on the human CaSR. These studies were conducted by measuring IP1 production in HEK293 cells that express the human CaSR.

CC(=O)N[C@H](CS)C(=O)N[C@H](CCCNC(=N)N)C(=O)N[C@H](CCCNC(=N)N)C(=O)N[C@H](CCCNC(=N)N)C(=O)N[C@H](CCCNC(=N)N)C(=O)N[C@H](CCCNC(=N)N)C(N)=O [SEQ ID NO: 5, Ac-crrrrr-NH2] (HELM PEPTIDE1{[ac].[dC].[dR].[dR].[dR].[dR].[dR].[am]}$$$$V2.0)
effect on plasma PTH [1]: significant drop in plasma PTH | mean PTH reduction [1]: 60%

CC(=O)N[C@H](CS)C(=O)N[C@H](CCCNC(=N)N)C(=O)N[C@H](CCCNC(=N)N)C(=O)N[C@H](CCCNC(=N)N)C(=O)N[C@H](CCCNC(=N)N)C(=O)N[C@H](CCCNC(=N)N)C(=O)N[C@H](CCCNC(=N)N)C(N)=O [SEQ ID NO: 6, Ac-crrrrrr-NH2]
in vivo activity in comparison ([2]; compared with SEQ ID NO:41): greater and more prolonged activity than Ac-crrrrrrrr-NH2 (SEQ ID NO:41) | effect on plasma PTH [1]: significant drop in plasma PTH | mean PTH reduction [1]: ~40% | decrease in percent PTH [3]: below the detection limit or essentially zero

CC(=O)N[C@H](CS)C(=O)N[C@H](CCCNC(=N)N)C(=O)N[C@H](CCCNC(=N)N)C(=O)N[C@H](CCCNC(=N)N)C(=O)N[C@H](CCCNC(=N)N)C(=O)N[C@H](CCCNC(=N)N)C(=O)N[C@H](CCCNC(=N)N)C(=O)N[C@H](CCCNC(=N)N)C(N)=O [SEQ ID NO: 7, Ac-crrrrrrr-NH2] (HELM PEPTIDE1{[ac].[dC].[dR].[dR].[dR].[dR].[dR].[dR].[dR].[am]}$$$$V2.0)
effect on plasma PTH [1]: significant drop in plasma PTH

CC(=O)N[C@H](CS)C(=O)N[C@H](C)C(=O)N[C@H](CCCNC(=N)N)C(=O)N[C@H](CCCNC(=N)N)C(=O)N[C@H](CCCNC(=N)N)C(=O)N[C@H](CCCNC(=N)N)C(=O)N[C@H](CCCNC(=N)N)C(N)=O [SEQ ID NO: 8, Ac-carrrrr-NH2] (HELM PEPTIDE1{[ac].[dC].[dA].[dR].[dR].[dR].[dR].[dR].[am]}$$$$V2.0)
decrease in percent PTH [3]: below the detection limit or essentially zero

CC(=O)N[C@H](CS)C(=O)N[C@H](CCCNC(=N)N)C(=O)N[C@H](CCCNC(=N)N)C(=O)N[C@H](C)C(=O)N[C@H](CCCNC(=N)N)C(=O)N[C@H](CCCNC(=N)N)C(=O)N[C@H](CCCNC(=N)N)C(N)=O [SEQ ID NO: 10, Ac-crrarrr-NH2] (HELM PEPTIDE1{[ac].[dC].[dR].[dR].[dA].[dR].[dR].[dR].[am]}$$$$V2.0)
decrease in percent PTH [3]: below the detection limit or essentially zero

CC(=O)N[C@H](CS)C(=O)N[C@H](CCCNC(=N)N)C(=O)N[C@H](CCCNC(=N)N)C(=O)N[C@H](CCCNC(=N)N)C(=O)N[C@H](C)C(=O)N[C@H](CCCNC(=N)N)C(=O)N[C@H](CCCNC(=N)N)C(N)=O [SEQ ID NO: 11, Ac-crrrarr-NH2] (HELM PEPTIDE1{[ac].[dC].[dR].[dR].[dR].[dA].[dR].[dR].[am]}$$$$V2.0)
in vivo percent PTH AUC reduction ([3]; single IV administration): 45% | reduction in in vitro potency relative to Ac-crrrrrr-NH2 (SEQ ID NO:6) [4]: 5-10 fold

CC(=O)N[C@H](CS)C(=O)N[C@H](C)C(=O)N[C@H](CCCNC(=N)N)C(=O)N[C@H](C)C(=O)N[C@H](CCCNC(=N)N)C(=O)N[C@H](CCCNC(=N)N)C(=O)N[C@H](CCCNC(=N)N)C(N)=O [SEQ ID NO: 15, Ac-cararrr-NH2] (HELM PEPTIDE1{[ac].[dC].[dA].[dR].[dA].[dR].[dR].[dR].[am]}$$$$V2.0)
ability to activate the CaSR in vitro, in words [4]: significantly reduced potency in vitro in activating the CaSR

CC(=O)N[C@H](CS)C(=O)N[C@H](C)C(=O)N[C@H](CCCNC(=N)N)C(=O)N[C@H](CCCNC(=N)N)C(=O)N[C@H](CCCNC(=N)N)C(=O)N[C@H](C)C(=O)N[C@H](CCCNC(=N)N)C(N)=O [SEQ ID NO: 26, Ac-carrrar-NH2]
PTH blood concentration ([2]; 0.5 mg/kg dose): decreased PTH blood concentration to a non-detectable level for up to 4 hours after dosing | ability to activate the CaSR in vitro, in words [4]: retained much of the potency seen with Ac-crrrrrr-NH2 (SEQ ID NO:6) | reduction in in vitro potency relative to Ac-crrrrrr-NH2 (SEQ ID NO:6) [4]: −3 fold

CC(=O)N[C@H](C)C(=O)N[C@H](CCCNC(=N)N)C(=O)N[C@H](CCCNC(=N)N)C(=O)N[C@H](CCCNC(=N)N)C(=O)N[C@H](C)C(=O)N[C@H](CCCNC(=N)N)C(N)=O [SEQ ID NO: 29, Ac-arrrar-NH2] (HELM PEPTIDE1{[ac].[dA].[dR].[dR].[dR].[dA].[dR].[am]}$$$$V2.0)
PTH concentration ([2]; 9 mg/kg dose): did not reduce PTH concentration | ability to activate the CaSR in vitro, in words [4]: dramatically reduced the ability of the compound to activate the CaSR

CC(=O)N[C@H](CS)C(=O)N[C@H](CCCNC(=N)N)C(=O)N[C@H](CCCNC(=N)N)C(=O)N[C@H](CCCNC(=N)N)C(=O)N[C@H](CCCNC(=N)N)C(=O)N[C@H](CCCNC(=N)N)C(=O)N[C@H](CCCNC(=N)N)C(=O)N[C@H](CCCNC(=N)N)C(=O)N[C@H](CCCNC(=N)N)C(N)=O [SEQ ID NO: 41, Ac-crrrrrrrr-NH2] (HELM PEPTIDE1{[ac].[dC].[dR].[dR].[dR].[dR].[dR].[dR].[dR].[dR].[am]}$$$$V2.0)
ability to activate the CaSR in vitro, in words [4]: more potent at activating the CaSR

CC(=O)N[C@@H](CS)C(=O)N[C@H](C)C(=O)N[C@@H](CCCNC(=N)N)C(=O)N[C@H](CCCNC(=N)N)C(=O)N[C@@H](CCCNC(=N)N)C(=O)N[C@H](C)C(=O)N[C@@H](CCCNC(=N)N)C(N)=O [SEQ ID NO: 44, Ac-CaRrRaR-NH2]
decrease in potency relative to Ac-carrrar-NH2 (SEQ ID NO:26) [4]: < 4 fold | reduction in in vitro potency relative to Ac-crrrrrr-NH2 (SEQ ID NO:6) [4]: 10 fold
